From US20230293535A1, “ERBB/BTK INHIBITORS” (Dizal (Jiangsu) Pharmaceutical Co., Ltd., priority 2018, published 2023)

Columns and labels:
Phospho-BTK (Tyr223) = target: T1, Phospho-BTK (Tyr223) (Homo sapiens, UniProt Q06187); test: p-BTK assay in Ramos cells (HTRF Phospho-BTK Tyr223); format: cell-based; details: pervanadate stimulated, read-out: p-BTK (Romas) IC50
T1 construct: endogenous in cells; host or cells: Ramos
Description: The assay plates were then incubated for 30 minutes at 37° C., 5% CO2. 300 uM Per vanadate (3X) was added to each well and the assay plates were again incubated for 60 minutes at 37° C., 5% CO2. Phospho-BTK (Tyr223) is detected using the HTRF® reagents (Cisbio) according to the manufacturer’s one-plate assay protocol.

BTK [1] = target: T2, BTK (Homo sapiens, UniProt Q06187); test: BTK target site occupancy ELISA (PBMC); format: cell-based; details: BTK receptor occupancy
Description: (§1) An enzyme-linked immunosorbent assay (ELISA) method for the detection of free uninhibited Btk in mouse and human lysates. Human or mouse whole blood were incubated with compound for 2 hour at 37° C. Whole blood were lysed in ice-cold lysis buffer containing 50 mM Tris-HCl, pH 7.5, 150 mM NaCl, 1 mM EDTA,1% Triton X-100. […] Samples were transferred to a streptavidin-coated 96-well ELISA plate and mixed while shaking for 1 hour at room temperature. The α-Btk antibody (1:500; clone number D3H5, Cell signaling Technology, Danvers, MA, USA) was then added to the well and incubated for 1 hour at room temperature. After wash, goat α-rabbit-FW (1:5000 dilution in PBS+ 0.05% Tween-20 + 1% BSA) was added to each well and incubated for 1 h at room temperature. The ELISA was developed with addition of tetramethyl benzidine (TMB) followed by Stop Solution and read at OD 450 nm.

Ba/F3 EGFR ASV ins cells = test: Cell proliferation, Ba/F3 EGFR ASV ins (CellTiter-Glo, 72 h); format: cell-based; details: Ba/F3 EGFR, 72 h, Ba/F3 EGFR ASV ins, 72 h proliferation; read-out: EGFR Exon20 ASV insertion GI50;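 also: IL3-independent Ba/F3 cells transduced with EGFR V769_D770insASV, cellular ATP luminescence after compound exposure, growth relative to DMSO control with the day-0 baseline reading subtracted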
BTK [2] = target: T2, BTK; test: BTK target site occupancy ELISA (Ramos); format: cell-based; set-up: endogenous in cells; host or cells: Ramos; details: BTK receptor occupancy, read-out: Occupancy (Romas) IC50
Description: as §1

[3] = target: T3, human EGFR exon 20 V769_D770insASV (Homo sapiens, UniProt P00533, INS769ASV); test: EGFR Exon20 ASV insertion cellular phosphorylation inhibition (MSD pEGFR Y1068/total EGFR); format: cell-based; details: Ba/F3 EGFR ASV ins cells, 4 h compound, p-EGFR(Y1068)/total EGFR;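 also: electrochemiluminescent readout on an MSD SECTOR Imager, IL3-independent transduced cells in medium with 1% FBS, compound concentration series at 37 °C and 5% CO2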
T3 construct: expressed in transfected cells; host or cells: Ba/F3 (DSMZ ACC-300), lentiviral transduction, puromycin selection, IL3 depletion
Description: To generate the EGFR exon 20 V769_D770insASV transduced Ba/F3 cell line, the parental Ba/F3 cells were infected with the recombinant EGFR V769_D770insASV lentivirus and then followed by 1 µg/ml of puromycin selection and IL3 depletion. The resulting cell line expresses constitutively phosphorylated EGFR protein and proliferates in the absence of IL3, which could be used for in vitro PD and anti-proliferation assays.
(§2) One day before the test, WT or mutant cells were seeded in 96 well plates at appropriate concentrations with corresponding growth media supplemented with 1% FBS, and incubated overnight. The next day, tested compounds at a series of concentrations were added into each individual well of the plates, and the plates were incubated for 4 h at 37° C. with 5% CO2.
The EGFR (Y1068) phosphorylation level (activity) of cells in each well were then measured with MSD kit named “MULTI-SPOT®96 4-Spot HB Prototype EGFR Triplex [sequence]: pEGFR(Tyr1068),pEGFR(Tyr1173), Total EGFR” according to the manufacturer’s instruction (MESO SCALE DISCOVERY, Cat# N45ZB-1). The assay is an electrochemiluminescent method for determining both phosphorylated and total EGFR of cells with an MSD SECTOR® Imager and the ratio of p-EGFR/total EGFR can be generated by the machine. The Her2 (Y1248) phosphorylation level (activity) of cells in each well were measured with MSD Kit named “Phospho-ErbB2 (Tyr1248) Assay Whole Cell Lysate Kit” according to the manufacturer’s instruction (MESO SCALE DISCOVERY, Cat# K151CLD-3). The assay is an electrochemiluminescent method (MESO SCALE DISCOVERY) for determining both phosphorylated and total Her2 of cells with an MSD SECTOR® Imager and then the ratio of p-Her2/total Her2 can be generated by the machine.

Ba/F3 EGFR NPH ins cells = test: Cell proliferation, Ba/F3 EGFR NPH ins (CellTiter-Glo, 72 h); format: cell-based; details: Ba/F3 EGFR, 72 h, Ba/F3 EGFR NPH ins, 72 h proliferation; read-out: EGFR Exon20 NPH insertion GI50;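 also: IL3-independent cells carrying constitutively phosphorylated EGFR, compound dilution series, viable cells quantified by ATP luminescence, growth relative to DMSO wells after subtracting pre-dosing (day 0) baseline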
OCI-LY-10 cells = test: BTK (wt) cell proliferation, OCI-LY-10 (CellTiter-Glo, 72 h); format: cell-based; details: Homo sapiens, OCI-Ly10, 72 h, OCI-LY-10 cells, 72 h, CellTiter-Glo; read-out: BTK WT OCI-LY-10 GI50;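 also: viable cells quantified via cellular ATP luminescence, proliferation given as percent of DMSO control after subtracting a duplicate plate read at time of dosing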
Ri-1 cells = test: BTK (wt) cell proliferation, Ri-1 (CellTiter-Glo, 72 h); format: cell-based; details: Ri-1, 72 h, Ri-1 cells, 72 h, CellTiter-Glo; read-out: BTK WT Ri-1 GI50;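 also: viable cells quantified as cellular ATP luminescence, proliferation normalized to a time-zero plate and the DMSO control, compounds tested across a dilution series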
Description: OCI-LY-10 at 3,750 cells/well, TMD-8 and Ri-1 at 2,000 cells/well, and DB at 1,250 cells/well, respectively, were sorted into 384-well plates in RPMI1640 medium with 10% FBS. After overnight incubation, all cells were incubated with compound at a series of concentrations. Meanwhile, a duplicated plate of each cell line was prepared for measuring G0 value. The dosed plates were further incubated for 72 hours and the number of viable cells was measured by CellTiter-Glo® Luminescent Cell Viability Assay (Promega), a luminescent method for determining the number of viable cells through measurement of cellular ATP concentration using Envision plate reader (PerkinElmer). The percentage of proliferation was calculated as: % Proliferation = 100 × (G3 value of sample well - G0 value)/(G3 value of DMSO control - G0 value).

[4] = test system: NCI-H1975 EGFR L858R/T790M cells; test: Cell proliferation, NCI-H1975 EGFR L858R/T790M (CellTiter-Glo, 72 h); format: cell-based; details: Homo sapiens, NCI-H1975, 72 h, NCI-H1975, 72 h proliferation; read-out: EGFR L858R and T790M mutation GI50;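 also: viable cells quantified by luciferase-based ATP luminescence, proliferation expressed relative to DMSO-treated wells (100%) after subtracting a parallel plate read at the time of dosing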
EGFR L858R&T790M = target: T4, EGFR L858R&T790M (Homo sapiens, UniProt P00533, L858R/T790M); test: EGFR L858R and T790M cellular phosphorylation inhibition in NCI-H1975 (MSD); format: cell-based; details: NCI-H1975 cells, 4 h compound, p-EGFR(Y1068)/total EGFR; read-out: EGFR L858R and T790M mutation IC50;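 also: phosphorylated and total EGFR detected by electrochemiluminescence, cells exposed to compound in medium containing 1% FBS at 37 °C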
T4 construct: host or cells: NCI-H1975

WT EGFR cell line A-431 = test: Cell proliferation, WT EGFR A431 (CellTiter-Glo, 72 h); format: cell-based; details: Homo sapiens, A-431, 72 h, A431, 72 h proliferation; read-out: EGFR WT A431 GI50;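 also: proliferation from a luminescent ATP viability signal, expressed as 100 × (treated minus time-zero plate) over (DMSO control minus time-zero plate), cells grown with 10% FBS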
[5] = target: T5, human Her2 exon 20 insertion mutation YVMA (Homo sapiens, UniProt P04626, INS775YVMA); test: Her2 Exon 20 YVMA insertion cellular phosphorylation inhibition (MSD p-Her2 Y1248/total Her2); format: cell-based; details: Her2 YVMAins cells, 4 h compound;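 also: lentivirally transduced NIH-3T3 cells in 1% FBS medium, electrochemiluminescent MSD read-out, graded compound concentrations at 37 °C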
T5 construct: expressed in transfected cells; host or cells: NIH-3T3, lentiviral transduction, puromycin selection

WT EGFR = target: T6, WT EGFR (Homo sapiens, UniProt P00533); test: WT EGFR cellular phosphorylation inhibition in A-431 (hEGF stimulated, MSD); format: cell-based; details: A431 cells, 4 h compound, then 100 ng/ml hEGF 10 min;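 also: electrochemiluminescence read-out of EGFR Tyr1068 phosphorylation expressed as ratio to total EGFR, cells kept in medium with 1% FBS, compounds tested as a concentration series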
T6 construct: host or cells: A-431

[6] = test system: Her2 exon 20 insertion YVMA transduced NIH-3T3 cell line; test: Cell proliferation, Her2 YVMAins NIH-3T3 (CellTiter-Glo, 72 h); format: cell-based; details: Mus musculus, NIH3T3, 72 h, Her2 YVMAins cells, 72 h proliferation; read-out: Her2 Exon 20 YVMA insertion GI50;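 also: viable cells quantified by ATP luminescence, growth over a day-zero baseline plate expressed as percent of DMSO control growth, compound dilution series in 10% FBS medium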
TMD-8 cells = test: BTK (wt) cell proliferation, TMD-8 (CellTiter-Glo, 72 h); format: cell-based; details: Homo sapiens, TMD8, 72 h, TMD-8 cells, 72 h, CellTiter-Glo; read-out: BTK WT TMD-8 GI50;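 also: viable cells quantified by ATP-based luminescence, proliferation expressed as percent of DMSO control after subtracting a time-zero baseline plate read at dosing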
DB cells = test: BTK (wt) cell proliferation, DB (CellTiter-Glo, 72 h); format: cell-based; details: Homo sapiens, DB, DB cells, CellTiter-Glo, read-out: Non-BCR activated DB GI50;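 also: DB cells in 384-well plates given a dilution series of compound, viable cells read by ATP luminescence, growth expressed versus DMSO control after subtracting a time-zero plate reading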
[7] = target: T7, human EGFR exon 20 H773_V774insNPH (Homo sapiens, UniProt P00533, INS773NPH); test: EGFR Exon20 NPH insertion cellular phosphorylation inhibition (MSD pEGFR Y1068/total EGFR); format: cell-based; details: Ba/F3 EGFR NPH ins cells, 4 h compound, p-EGFR(Y1068)/total EGFR;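 also: IL3-independent Ba/F3 cells with constitutively phosphorylated EGFR, compound exposure at 37 °C under 5% CO2, electrochemiluminescent MSD measurement of the p-EGFR to total EGFR ratio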
T7 construct: host or cells: Ba/F3
Description: as §2
The EGFR (Y1068) phosphorylation level (activity) of cells in each well were then measured with MSD kit named “MULTI-SPOT®96 4-Spot HB Prototype EGFR Triplex [sequence]: pEGFR(Tyr1068),pEGFR(Tyr1173), Total EGFR” according to the manufacturer’s instruction (MESO SCALE DISCOVERY, Cat# N45ZB-1). The assay is an electrochemiluminescent method for determining both phosphorylated and total EGFR of cells with an MSD SECTOR® Imager and the ratio of p-EGFR/total EGFR can be generated by the machine.

[8] = In vitro human hepatocytes clearance assay; details: both, human, cryopreserved human hepatocytes (suspension), human hepatocytes Clint (µL/min/10^6cells), mixed gender human hepatocytes, incubation up to 100 min
Description: (§3) The protocol for rat/human hepatocytes metabolic stability assay is employed to determine the clearance of the compounds of the present disclosure in vitro.
(§4) Rat hepatocytes in male gender and human hepatocytes in mixed gender were obtained from commercial vendors (e.g., BioreclamationIVT) and stored at -150° C. prior to use. 10 mM stock solutions of tested compounds were prepared in DMSO. Thawing medium and supplement incubation medium (serum-free) were placed in a 37° C. water bath for at least 15 minutes prior to use. Stock solutions were diluted to 100 µM by combining 198 µL acetonitrile and 2 µL of 10 mM stock solution.
(§5) Vials of cryopreserved hepatocytes were removed from storage, ensured that vials remain at cryogenic temperatures. The vials were thawed in a 37° C. water bath with gently shaking. Vials were kept in water bath until all ice crystals had dissolved and were no longer visible. Vials were sprayed with 70% ethanol before being transferred to a biosafety cabinet. And then the contents were poured into the 50 mL thawing medium conical tube. Vials were centrifuged at 100 g for 10 minutes at room temperature.
(§6) Cell viability and density were counted using a Trypan Blue exclusion, and then cells were diluted with serum-free incubation medium to a working cell density of 1 × 10^6 viable cells/ml. […] The inactivated hepatocytes were used to prepare negative samples, which were used to exclude the misleading factor that resulted from instability of chemical itself.
(§7) Aliquots of 247.5 µL hepatocytes were dispensed into each well of a 96-well non-coated plate. The plate was placed in the incubator on an orbital shaker for approximately 10 minutes. Aliquots of 2.5 µL of the 100 µM test compounds were added into respective wells of the non-coated 96-well plate to start the reaction. This assay was performed in duplicate. The plate was incubated in the incubator on an orbital shaker for the designed time points. […] Samples were centrifuges for 20 minutes at 4000 g and aliquots of 100 µL of the supernatants were used for LC-MS/MS analysis for measurement of test compounds
(§8) In vitro hepatocyte clearance was estimated based on determination of elimination half-life (T½) of compounds disappearance from their initial concentrations. Peak area ratios of each compound (test or control) to IS was calculated. Ln (%Control) versus Incubation Time (min) curve was plotted, and the slope of a linear fitting line was calculated.

[9] = Rat pharmacokinetic study after oral administration (SOA); format: in vivo; details: male Han Wistar rats; for SOA DN AUCSYS (ng·h/mL)/(mg/kg): dose-normalised systemic AUC; for Cmax: rat, plasma, nominal 10 mg/kg (actual dose in c1)
Description: For rat pharmacokinetic studies, six male Han Wistar rats were purchased from Beijing Vital River and orally dosed with the test compound at 10 mg/kg in 0.5% Tween-80 and 0.5% hydroxypropyl methylcellulose (v/w). At, 0.5, 1, 2, 4, 7 and 16 hours post-dose, blood samples (>100 µL/time point) were collected from portal vein and via cardiac puncture into separate K2EDTA […] tubes, and then immediately centrifuged at 1500 g, 5 min at 4° C. to separate plasma. The plasma samples were deproteinized with 4 fold acetonitrile (including internal standard), vortex for 10 min and centrifuges for 10 minutes at 4000 g at 4° C.. The supernatantswere submitted to LC/MS/MS (API 5500, Applied Biosystems, Foster City) analysis. Two sets of standard curves were run at the beginning and end of each batch from plasma sample analysis.
Compound absorption was measured by portal vein AUC (AUCHPV) and systemic AUC (AUCSYS) observed maximum concentration (Cmax) in rats after oral administration. Dose is the actual dose used in SOA study. Find below in Table 9 data for exemplary tested compounds.

[10] = In vitro rat hepatocytes clearance assay; details: male, rat, cryopreserved rat hepatocytes (suspension), rat hepatocytes Clint (µL/min/10^6cells), 1 µM-range incubation up to 100 min
Description: as §3, §4, §5, §6, §7, §8

T4 sequence (P00533 25-1210 T790M/L858R): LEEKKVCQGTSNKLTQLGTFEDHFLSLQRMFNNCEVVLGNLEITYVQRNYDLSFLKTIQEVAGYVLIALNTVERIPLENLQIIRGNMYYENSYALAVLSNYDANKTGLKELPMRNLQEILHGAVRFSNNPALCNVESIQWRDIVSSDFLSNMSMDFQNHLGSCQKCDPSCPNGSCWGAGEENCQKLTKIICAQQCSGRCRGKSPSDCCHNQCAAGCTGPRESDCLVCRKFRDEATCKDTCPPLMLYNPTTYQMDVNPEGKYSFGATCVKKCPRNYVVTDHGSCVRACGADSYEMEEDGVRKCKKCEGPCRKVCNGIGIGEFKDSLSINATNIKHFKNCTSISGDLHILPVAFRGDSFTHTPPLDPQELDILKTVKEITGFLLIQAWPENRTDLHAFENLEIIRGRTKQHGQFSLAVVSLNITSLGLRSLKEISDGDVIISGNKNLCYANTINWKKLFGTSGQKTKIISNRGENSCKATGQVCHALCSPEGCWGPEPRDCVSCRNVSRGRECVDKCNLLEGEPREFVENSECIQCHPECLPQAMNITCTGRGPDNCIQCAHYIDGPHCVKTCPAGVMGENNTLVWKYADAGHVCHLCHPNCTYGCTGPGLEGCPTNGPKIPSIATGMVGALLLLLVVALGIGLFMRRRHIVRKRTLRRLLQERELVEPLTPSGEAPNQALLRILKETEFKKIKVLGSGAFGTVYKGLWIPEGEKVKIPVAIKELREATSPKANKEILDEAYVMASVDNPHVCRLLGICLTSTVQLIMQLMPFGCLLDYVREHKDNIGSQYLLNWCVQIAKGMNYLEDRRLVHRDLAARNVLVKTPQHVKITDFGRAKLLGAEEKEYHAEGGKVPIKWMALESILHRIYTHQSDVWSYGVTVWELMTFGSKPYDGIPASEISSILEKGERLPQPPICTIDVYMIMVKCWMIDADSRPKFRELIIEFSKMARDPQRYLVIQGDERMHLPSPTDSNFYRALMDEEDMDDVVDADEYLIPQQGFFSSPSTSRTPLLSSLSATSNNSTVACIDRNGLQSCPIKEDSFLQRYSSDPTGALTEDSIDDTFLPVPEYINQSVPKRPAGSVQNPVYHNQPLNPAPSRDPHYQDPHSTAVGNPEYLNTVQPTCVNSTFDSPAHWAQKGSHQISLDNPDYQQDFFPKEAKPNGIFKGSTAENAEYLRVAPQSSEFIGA
T3 sequence (P00533 with tags, fused parts or gaps INS769ASV): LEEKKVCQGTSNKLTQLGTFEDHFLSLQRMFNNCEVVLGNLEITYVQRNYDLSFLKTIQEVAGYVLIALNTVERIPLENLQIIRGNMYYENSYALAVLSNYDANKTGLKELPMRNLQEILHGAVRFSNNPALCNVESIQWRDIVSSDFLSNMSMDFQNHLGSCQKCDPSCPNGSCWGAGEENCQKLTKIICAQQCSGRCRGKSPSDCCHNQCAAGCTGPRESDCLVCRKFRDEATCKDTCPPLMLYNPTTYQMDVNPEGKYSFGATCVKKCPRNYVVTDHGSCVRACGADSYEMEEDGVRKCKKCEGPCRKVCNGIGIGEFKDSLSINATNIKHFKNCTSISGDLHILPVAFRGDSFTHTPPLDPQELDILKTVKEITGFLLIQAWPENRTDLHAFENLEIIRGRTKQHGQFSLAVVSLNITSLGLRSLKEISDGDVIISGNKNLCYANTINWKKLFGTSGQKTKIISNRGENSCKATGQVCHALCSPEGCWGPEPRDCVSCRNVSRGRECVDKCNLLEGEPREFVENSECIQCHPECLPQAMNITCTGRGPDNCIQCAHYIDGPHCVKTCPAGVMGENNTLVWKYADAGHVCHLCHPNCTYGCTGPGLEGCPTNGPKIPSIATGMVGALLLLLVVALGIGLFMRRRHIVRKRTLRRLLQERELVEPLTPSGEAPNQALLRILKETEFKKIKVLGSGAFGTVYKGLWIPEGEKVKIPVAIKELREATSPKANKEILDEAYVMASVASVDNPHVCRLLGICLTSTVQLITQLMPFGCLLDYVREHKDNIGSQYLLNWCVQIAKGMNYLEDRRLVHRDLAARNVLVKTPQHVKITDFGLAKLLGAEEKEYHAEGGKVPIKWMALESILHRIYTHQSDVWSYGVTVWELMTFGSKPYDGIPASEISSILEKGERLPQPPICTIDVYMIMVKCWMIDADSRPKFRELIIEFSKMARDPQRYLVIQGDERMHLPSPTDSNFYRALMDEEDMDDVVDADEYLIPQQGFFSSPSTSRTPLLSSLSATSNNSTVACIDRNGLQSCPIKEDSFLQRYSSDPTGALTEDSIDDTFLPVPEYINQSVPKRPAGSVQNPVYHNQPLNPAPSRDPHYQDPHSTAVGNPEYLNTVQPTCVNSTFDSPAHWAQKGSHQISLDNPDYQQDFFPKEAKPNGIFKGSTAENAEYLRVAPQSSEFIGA
T6 sequence (P00533 25-1210): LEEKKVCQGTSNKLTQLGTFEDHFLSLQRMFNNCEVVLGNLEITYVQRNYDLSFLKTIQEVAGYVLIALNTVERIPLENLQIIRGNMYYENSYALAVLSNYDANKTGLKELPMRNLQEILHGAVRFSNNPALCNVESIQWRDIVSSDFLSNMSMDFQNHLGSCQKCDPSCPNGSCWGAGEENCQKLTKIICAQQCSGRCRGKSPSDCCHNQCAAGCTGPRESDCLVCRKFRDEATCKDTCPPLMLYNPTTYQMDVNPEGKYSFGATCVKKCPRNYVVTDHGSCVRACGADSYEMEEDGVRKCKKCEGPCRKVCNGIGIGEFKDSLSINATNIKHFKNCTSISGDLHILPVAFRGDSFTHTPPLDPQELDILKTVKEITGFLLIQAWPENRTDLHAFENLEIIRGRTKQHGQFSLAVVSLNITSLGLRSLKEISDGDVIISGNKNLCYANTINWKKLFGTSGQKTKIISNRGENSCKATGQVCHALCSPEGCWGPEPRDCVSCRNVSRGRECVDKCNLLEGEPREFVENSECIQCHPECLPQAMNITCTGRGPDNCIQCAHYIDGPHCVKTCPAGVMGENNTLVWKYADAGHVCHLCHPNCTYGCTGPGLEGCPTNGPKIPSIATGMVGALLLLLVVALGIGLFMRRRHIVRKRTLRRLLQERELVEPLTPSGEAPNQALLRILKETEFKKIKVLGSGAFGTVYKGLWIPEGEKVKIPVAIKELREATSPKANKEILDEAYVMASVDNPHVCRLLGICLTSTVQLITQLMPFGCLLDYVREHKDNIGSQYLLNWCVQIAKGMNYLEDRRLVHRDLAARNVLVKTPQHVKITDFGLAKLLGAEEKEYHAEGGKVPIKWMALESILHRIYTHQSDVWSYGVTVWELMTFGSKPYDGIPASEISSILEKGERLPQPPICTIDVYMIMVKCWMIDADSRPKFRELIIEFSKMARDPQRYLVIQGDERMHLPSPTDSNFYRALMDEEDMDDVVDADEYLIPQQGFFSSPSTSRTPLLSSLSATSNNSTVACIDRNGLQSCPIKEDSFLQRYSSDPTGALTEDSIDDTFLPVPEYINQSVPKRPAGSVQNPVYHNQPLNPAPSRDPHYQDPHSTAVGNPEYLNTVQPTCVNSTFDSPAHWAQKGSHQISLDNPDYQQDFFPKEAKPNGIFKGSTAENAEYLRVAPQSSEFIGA
T7 sequence (P00533 with tags, fused parts or gaps INS773NPH): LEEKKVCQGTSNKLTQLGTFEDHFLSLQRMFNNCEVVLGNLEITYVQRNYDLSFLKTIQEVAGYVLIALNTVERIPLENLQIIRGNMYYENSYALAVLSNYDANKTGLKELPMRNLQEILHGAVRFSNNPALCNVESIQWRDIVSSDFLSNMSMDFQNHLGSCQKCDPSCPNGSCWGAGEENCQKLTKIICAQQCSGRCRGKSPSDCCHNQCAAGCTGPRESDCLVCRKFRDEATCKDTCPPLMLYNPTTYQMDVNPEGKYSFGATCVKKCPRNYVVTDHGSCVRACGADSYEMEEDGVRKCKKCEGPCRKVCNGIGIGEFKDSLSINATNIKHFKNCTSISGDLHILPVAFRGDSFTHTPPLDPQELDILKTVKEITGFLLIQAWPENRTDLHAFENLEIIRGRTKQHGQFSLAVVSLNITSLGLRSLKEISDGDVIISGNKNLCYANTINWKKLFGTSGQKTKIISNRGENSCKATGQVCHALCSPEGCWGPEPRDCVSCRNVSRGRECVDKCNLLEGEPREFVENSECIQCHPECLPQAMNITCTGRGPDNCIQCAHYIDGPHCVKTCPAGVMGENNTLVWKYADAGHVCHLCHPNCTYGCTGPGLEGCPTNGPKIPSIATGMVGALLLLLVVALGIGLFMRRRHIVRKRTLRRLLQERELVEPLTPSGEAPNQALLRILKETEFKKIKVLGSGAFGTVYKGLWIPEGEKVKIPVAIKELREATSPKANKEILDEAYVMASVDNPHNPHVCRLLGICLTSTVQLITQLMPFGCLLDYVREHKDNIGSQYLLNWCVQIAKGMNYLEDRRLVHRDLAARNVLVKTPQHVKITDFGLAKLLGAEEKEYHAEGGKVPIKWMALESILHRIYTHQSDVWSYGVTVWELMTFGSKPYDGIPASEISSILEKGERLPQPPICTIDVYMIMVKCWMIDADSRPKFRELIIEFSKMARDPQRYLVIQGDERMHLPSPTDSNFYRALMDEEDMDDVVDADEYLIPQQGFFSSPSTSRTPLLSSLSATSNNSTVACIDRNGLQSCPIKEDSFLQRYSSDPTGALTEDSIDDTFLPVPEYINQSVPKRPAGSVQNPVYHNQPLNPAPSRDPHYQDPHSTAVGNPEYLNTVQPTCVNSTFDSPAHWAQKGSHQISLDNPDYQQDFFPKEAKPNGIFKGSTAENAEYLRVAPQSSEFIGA

| Compound | GI50 (Ba/F3 EGFR ASV ins cells) [nM] | IC50 [3] [nM] | GI50 (Ba/F3 EGFR NPH ins cells) [nM] | GI50 (OCI-LY-10 cells) [nM] | GI50 (Ri-1 cells) [nM] | GI50 [4] [nM] | IC50 (EGFR L858R&T790M) [nM] | GI50 (WT EGFR cell line A-431) [nM] | IC50 [5] [nM] | IC50 (WT EGFR) [nM] | GI50 [6] [nM] | GI50 (TMD-8 cells) [nM] | GI50 (DB cells) [nM] | IC50 [7] [nM] | hepatocyte CLint at 1 µM [8] [µL/min/1e6 cells] | SOA DN AUCSYS (ng·h/mL)/(mg/kg) [9] | Cmax [9] [ng/mL] | hepatocyte CLint at 1 µM [10] [µL/min/1e6 cells] | also measured |
| --- | --- | --- | --- | --- | --- | --- | --- | --- | --- | --- | --- | --- | --- | --- | --- | --- | --- | --- | --- |
| C=CC(=O)Nc1cc(Nc2ncnc(Nc3cc(F)c(F)cc3C(C)(C)O)n2)c(OC)cc1N1CC(CN(C)C)C1 [Compound 23, N-(5-(4-(4,5-difluoro-2-(2-hydroxypropan-2-yl)phenylamino)-1,3,5-triazin-2-ylamino)-2-(3-((dimethylamino)methyl)azetidin-1-yl)-4-methoxyphenyl)acr ylamide] | 159 | 87.6 | 224 | 1.49 | 3.71 | 34.7 | 1.3 | 76.8 | 52.7 | 101 | 271 | 3.93 | > 3000 | 321 |  |  |  |  | IC50 (Phospho-BTK (Tyr223)): 1.6 nM; IC50 (BTK [1]): 1.1 nM; IC50 (BTK [2]): 1.1 nM |
| C=CC(=O)Nc1cc(Nc2ncnc(Nc3cc(Cl)c(F)cc3C(C)(C)O)n2)c(OC)cc1N1CC[C@@H](N(C)C)C1 [Compound 33, (R)-N-(5-(4-(5-chloro-4-fluoro-2-(2-hydroxypropan-2-yl)phenylamino)-1,3,5-triazin-2-ylamino)-2-(3-(dimethylamino)pyrrolidin-1-yl)-4-methoxyphenyl)acrylamide] | 22.1 | 6.9 | 29.6 | 0.97 | 2 | 3.1 | 0.6 | 12.7 | 7.8 | 12.2 | 71.1 | 2.5 | > 3000 | 14 | 2.77 | 432 (ng·h/mL)/(mg/kg) | 370 | 6.99 |  |
| C=CC(=O)Nc1cc(Nc2nccc(Nc3cc(Cl)c(F)cc3C(C)(C)O)n2)c(OC)cc1N1C[C@@H](F)[C@@H](N(C)C)C1 [Compound 79, N-(5-(4-(5-chloro-4-fluoro-2-(2-hydroxypropan-2-yl)phenylamino)pyrimidin-2-ylamino)-2-((3 S,4R)-3-(dimethylamino)-4-fluoropyrrolidin-1-yl)-4-methoxyphenyl)acrylamide] | 176 | 43.2 | 167 | 8.1 | 80.9 | 13 | 1.3 | 124 | 18.8 | 356 | 233 | 14.4 | > 3000 | 29.5 | 7.36 | 50.1 (ng·h/mL)/(mg/kg) | 52.5 | 24.1 |  |
| C=CC(=O)Nc1cc(Nc2nccc(Nc3cc(Cl)c(F)cc3C(C)(C)O)n2)c(OC)cc1N1CC[C@@H](CN(C)C)C1 [Compound 86, (S)-N-(5-(4-(5-chloro-4-fluoro-2-(2-hydroxypropan-2-yl)phenylamino)pyrimidin-2-ylamino)-2-(3-((dimethylamino)methyl)pyrrolidin-1-yl)-4-methoxyphenyl)acrylamide] | 90.9 | 17.9 | 59.8 | 7.8 | 18.6 | 29.1 | 0.6 | 45.8 | 9.3 | 195 | 249 | 11.4 | > 3000 | 21.5 | 4.32 | 77.8 (ng·h/mL)/(mg/kg) | 76.5 | 16.2 |  |
| C=CC(=O)Nc1cc(Nc2ncnc(Nc3cc(Cl)c(F)cc3C(C)(C)O)n2)c(OC)cc1N1C[C@@H](F)[C@@H](N(C)C)C1 [Compound 93, N-(5-(4-(5-chloro-4-fluoro-2-(2-hydroxypropan-2-yl)phenylamino)-1,3,5-triazin-2-ylamino)-2-((3 S,4R)-3-(dimethylamino)-4-fluoropyrrolidin-1-yl)-4-methoxyphenyl) acrylamide] | 83.2 | 19.4 | 105 | 0.92 | 3.2 | 7.3 | 1.6 | 21.5 | 15.1 | 51.6 | 166 | 3.1 | > 3000 | 33.1 | 5.01 | 249 (ng·h/mL)/(mg/kg) | 498 | 11.5 |  |
